Article PMC11089506 (Journal of Medicinal Chemistry, 2024)
Structures can show the parent of a compound that is named as a salt.

Tests used:
[1] = target: T1, α1A (adrenergic receptor) (Homo sapiens, UniProt P35348); assay: radioligand competition binding, [3H]Prazosin
T1 construct: Eurofins

Opioid receptor κ = target: T2, Opioid receptor κ (Homo sapiens, UniProt P41145); assay: radioligand competition binding, [3H]Diprenorphine (first line)
T2 construct: Eurofins

[2] = target: T3, Neuropeptide Y receptor Y2 (Homo sapiens, UniProt P49146); assay: radioligand competition binding, [125I]Peptide YY
T3 construct: Eurofins

Androgen receptor (NHR) [3] = target: T4, Androgen receptor (NHR) (Homo sapiens, UniProt P10275); conditions: estimated from the % inhibition data
Tachykinin receptor NK1 = target: T5, Tachykinin receptor NK1 (Homo sapiens, UniProt P25103); assay: radioligand competition binding, [3H]Substance P
T5 construct: Eurofins (contract laboratory)

5-HT4e = target: T6, 5-HT4e (Homo sapiens, UniProt Q13639); assay: radioligand competition binding, [3H]GR 113808
T6 construct: Eurofins

Phorbol ester = assay: radioligand competition binding, [3H]PDBu; parameters: species or system mouse
[4] = test system: various other targets (Table S4); assay: broad screen, radioligand binding competition assays (Eurofins), summary; conditions: high nanomolar or micromolar ranges
[5] = target: T7, D3 (dopaminergic receptor) (Homo sapiens, UniProt P35462); assay: radioligand competition binding, [3H]methyl-spiperone; conditions: read-out: % inhibition of the specific radioligand binding
T7 construct: Eurofins

[6] = target: T8, Epidermal Growth Factor receptor (Homo sapiens, UniProt P00533); assay: radioligand competition binding, [125I]EGF
T8 construct: Eurofins

Imidazoline receptor I2 = assay: radioligand competition binding, [3H]Idazoxan; parameters: species or system rat
M4 (muscarinic receptor) = target: T9, M4 (muscarinic receptor) (Homo sapiens, UniProt P08173); assay: radioligand competition binding, [3H]4-DAMP
T9 construct: Eurofins
T9 sequence (P08173 1-479): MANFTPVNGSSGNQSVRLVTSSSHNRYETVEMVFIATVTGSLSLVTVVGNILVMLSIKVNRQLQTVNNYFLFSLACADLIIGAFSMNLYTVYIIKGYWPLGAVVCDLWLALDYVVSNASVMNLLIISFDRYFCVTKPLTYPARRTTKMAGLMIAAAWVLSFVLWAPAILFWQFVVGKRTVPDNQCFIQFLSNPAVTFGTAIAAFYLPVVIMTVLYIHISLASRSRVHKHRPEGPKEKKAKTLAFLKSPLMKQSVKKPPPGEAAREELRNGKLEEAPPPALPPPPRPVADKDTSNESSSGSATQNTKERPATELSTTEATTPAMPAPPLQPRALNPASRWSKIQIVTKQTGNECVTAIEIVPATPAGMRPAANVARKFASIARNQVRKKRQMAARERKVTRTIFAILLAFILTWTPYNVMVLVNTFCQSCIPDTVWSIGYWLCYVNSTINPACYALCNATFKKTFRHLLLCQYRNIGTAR

[7] = target: Ca2+ Channel L-Type, (Dihydropyridine) (Rattus norvegicus, UniProt P22002); assay: biochemical; conditions: read-out: % inhibition of the specific radioligand binding
5-HT6 = target: T10, 5-HT6 (Homo sapiens, UniProt P50406); assay: radioligand competition binding, [3H]LSD
T10 construct: Eurofins

Androgen receptor (NHR) [8] = target: T4, Androgen receptor (NHR); assay: biochemical; conditions: read-out: % inhibition of the specific radioligand binding
Tachykinin receptor NK2 = target: T11, Tachykinin receptor NK2 (Homo sapiens, UniProt P21452); assay: radioligand competition binding, [125I]Neurokinin A
T11 construct: Eurofins (contract laboratory)

Endothelin receptor ETB = target: T12, Endothelin receptor ETB (Homo sapiens, UniProt P24530); assay: radioligand competition binding, [125I]Endothelin-1
T12 construct: Eurofins

[9] = estimated from the % inhibition data
[10] = read-out: % inhibition of the specific radioligand binding

COc1cc(C(F)(F)F)c(OC)cc1[C@@H]1CCCNC1 [(S)-11, 3-(2,5-Dimethoxy-4-(trifluoromethyl)phenyl)piperidine Hydrochloride]
IC50 [1, 9]: > 10 µM
inhibition at 10 µM [1, 10]: 32%
IC50 (Opioid receptor κ; [9]): > 10 µM
inhibition at 10 µM (Opioid receptor κ; [10]): 18%
IC50 [2, 9]: > 10 µM
inhibition at 10 µM [2, 10]: 3%
IC50 (Androgen receptor (NHR) [3]): > 10 µM
IC50 (Tachykinin receptor NK1; [9]): > 10 µM
inhibition at 10 µM (Tachykinin receptor NK1; [10]): 31%
IC50 (5-HT4e; [9]): > 10 µM
inhibition at 10 µM (5-HT4e; [10]): 30%
% inhibition of the specific radioligand binding (Phorbol ester; (S)-11 10 μM, n=1): 15%
IC50 (Phorbol ester; [9]): > 10 µM
binding affinities at the respective targets of the broad screen [4]: > 100 nM
inhibition at 10 µM [5]: 40%
IC50 [6, 9]: > 10 µM
inhibition at 10 µM [6, 10]: -18%
% inhibition of the specific radioligand binding (Imidazoline receptor I2; (S)-11 10 μM, n=1): 17%
IC50 (Imidazoline receptor I2; [9]): > 10 µM
IC50 (M4 (muscarinic receptor); [9]): 1 to 10 µM
inhibition at 0.1 µM (M4 (muscarinic receptor); [10]): 9%
inhibition at 1 µM (M4 (muscarinic receptor); [10]): 38%
inhibition at 10 µM (M4 (muscarinic receptor); [10]): 80%
inhibition at 10 µM [7]: -6%
IC50 (5-HT6; [9]): 1 to 10 µM
inhibition at 1 µM (5-HT6; [10]): 24%
inhibition at 10 µM (5-HT6; [10]): 77%
inhibition at 10 µM (Androgen receptor (NHR) [8]): 1%
IC50 (Tachykinin receptor NK2; [9]): > 10 µM
inhibition at 10 µM (Tachykinin receptor NK2; [10]): 1%
IC50 (Endothelin receptor ETB; [9]): > 10 µM
inhibition at 10 µM (Endothelin receptor ETB; [10]): -6%
